Measured values taken from ChEMBL document CHEMBL1201862, “PubChem BioAssay data set” (2004).
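The compound was tested at five concentrations on cells cultured in 96-well plates, with a 48-hour exposure period. Here, GI50 denotes the concentration required for 50% inhibition of growth.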 Activity calls are given as the source filed them. Rule as the data show it: active = GI50 up to about 1.1 µM and inactive = higher.

Columns and labels:
Assay in all cases: NCI-60 cell line screen, 48 h
Hs-578T = test system: Hs-578T
A549 = test system: A549
CAKI-1 = test system: CAKI-1
EKVX = test system: EKVX
NCI-H460 = test system: NCI-H460
NCI-H23 = test system: NCI-H23
PC-3 = test system: PC-3
NCI-H226 = test system: NCI-H226
SF-268 = test system: SF-268
SK-OV-3 = test system: SK-OV-3
OVCAR-4 = test system: OVCAR-4
MDA-MB-231 = test system: MDA-MB-231
IGROV-1 = test system: IGROV-1
SN12C = test system: SN12C
HCT-116 = test system: HCT-116
SK-MEL-28 = test system: SK-MEL-28
BT-549 = test system: BT-549
Malme-3M = test system: Malme-3M
RPMI-8226 = test system: RPMI-8226
SR = test system: SR

Structure (SMILES)	GI50 (Hs-578T)	GI50 (A549)	GI50 (CAKI-1)	GI50 (EKVX)	GI50 (NCI-H460)	GI50 (NCI-H23)	GI50 (PC-3)	GI50 (NCI-H226)	GI50 (SF-268)	GI50 (SK-OV-3)	GI50 (OVCAR-4)	GI50 (MDA-MB-231)	GI50 (IGROV-1)	GI50 (SN12C)	GI50 (HCT-116)	GI50 (SK-MEL-28)	GI50 (BT-549)	GI50 (Malme-3M)	GI50 (RPMI-8226)	GI50 (SR)
COc1cc2c(cc1OC)CN1CCCc3cc(OC)c(OC)cc3C1C2 (stereo not drawn)	40.8 µM (inactive)	55 µM (inactive)	38.6 µM (inactive)	44 µM (inactive)	31.4 µM (inactive)	52.4 µM (inactive)	39.8 µM (inactive)	27.9 µM (inactive)	61 µM (inactive)	63.4 µM (inactive)	62.4 µM (inactive)	56.5 µM (inactive)	22 µM (inactive)	42.7 µM (inactive)	23.1 µM (inactive)	32 µM (inactive)	99.3 µM (inactive)	30.3 µM (inactive)	–	–
O=c1cc(CO)n(CCc2c[nH]c3ccccc23)cc1O	28.1 µM (inactive)	> 100 µM (inactive)	46.2 µM (inactive)	> 100 µM (inactive)	33.3 µM (inactive)	73.8 µM (inactive)	> 100 µM (inactive)	–	20.7 µM (inactive)	48.4 µM (inactive)	–	31.3 µM (inactive)	86.5 µM (inactive)	36.2 µM (inactive)	71.9 µM (inactive)	–	> 100 µM (inactive)	13.4 µM (inactive)	> 100 µM (inactive)	–
O=C1CSC(=S)N1c1ccc(F)cc1F	41.3 µM (inactive)	61.9 µM (inactive)	45.3 µM (inactive)	94.8 µM (inactive)	83.2 µM (inactive)	46.5 µM (inactive)	> 100 µM (inactive)	> 100 µM (inactive)	44.6 µM (inactive)	> 100 µM (inactive)	49.2 µM (inactive)	> 100 µM (inactive)	51.6 µM (inactive)	> 100 µM (inactive)	> 100 µM (inactive)	78.7 µM (inactive)	39.6 µM (inactive)	66.5 µM (inactive)	24.4 µM (inactive)	–
COc1cc(/C=C2\N=C(c3ccccc3)N(c3nc4c(OC)ccc(OC)c4s3)C2=O)cc(OC)c1OC	> 100 µM (inactive)	> 100 µM (inactive)	> 100 µM (inactive)	> 100 µM (inactive)	> 100 µM (inactive)	> 100 µM (inactive)	59.7 µM (inactive)	–	> 100 µM (inactive)	> 100 µM (inactive)	> 100 µM (inactive)	> 100 µM (inactive)	> 100 µM (inactive)	> 100 µM (inactive)	66.8 µM (inactive)	> 100 µM (inactive)	> 100 µM (inactive)	> 100 µM (inactive)	43 µM (inactive)	–
c1ccc(C[N+]23CN4CN(CN(C4)C2)C3)cc1	> 100 µM (inactive)	29.2 µM (inactive)	45.9 µM (inactive)	> 100 µM (inactive)	38.2 µM (inactive)	19.1 µM (inactive)	17 µM (inactive)	> 100 µM (inactive)	29.3 µM (inactive)	> 100 µM (inactive)	36.5 µM (inactive)	20.1 µM (inactive)	52.2 µM (inactive)	53.2 µM (inactive)	27.7 µM (inactive)	26.7 µM (inactive)	48.2 µM (inactive)	57.7 µM (inactive)	22.5 µM (inactive)	–
CN(C)/C=N/c1cc(=O)n(C)c(=O)n1C	> 100 µM (inactive)	> 100 µM (inactive)	> 100 µM (inactive)	> 100 µM (inactive)	> 100 µM (inactive)	> 100 µM (inactive)	> 100 µM (inactive)	> 100 µM (inactive)	> 100 µM (inactive)	> 100 µM (inactive)	> 100 µM (inactive)	> 100 µM (inactive)	> 100 µM (inactive)	> 100 µM (inactive)	> 100 µM (inactive)	> 100 µM (inactive)	> 100 µM (inactive)	> 100 µM (inactive)	> 100 µM (inactive)	–
CC(=O)OCCC[C@@H]1C(=C(C)C)CCC2[C@@]1(C)CC[C@@]1(C)C[C@](C)(CCC=C(C)C)CC[C@]21C (stereo partly drawn)	> 100 µM (inactive)	> 100 µM (inactive)	> 100 µM (inactive)	> 100 µM (inactive)	> 100 µM (inactive)	> 100 µM (inactive)	18.5 µM (inactive)	> 100 µM (inactive)	> 100 µM (inactive)	> 100 µM (inactive)	> 100 µM (inactive)	> 100 µM (inactive)	> 100 µM (inactive)	> 100 µM (inactive)	> 100 µM (inactive)	> 100 µM (inactive)	> 100 µM (inactive)	> 100 µM (inactive)	> 100 µM (inactive)	–
N#Cc1c(N)n(-c2cccc(C(=O)O)c2)c(=O)c2cc([N+](=O)[O-])ccc12	> 100 µM (inactive)	0.505 µM (active)	> 100 µM (inactive)	–	> 100 µM (inactive)	> 100 µM (inactive)	42 µM (inactive)	> 100 µM (inactive)	> 100 µM (inactive)	–	> 100 µM (inactive)	> 100 µM (inactive)	–	> 100 µM (inactive)	> 100 µM (inactive)	> 100 µM (inactive)	> 100 µM (inactive)	–	> 100 µM (inactive)	–
CC(=O)OC/C=C(/CCl)CCC(Br)C(C)(C)Br.CC(=O)OC/C=C(\CCl)CCC(Br)C(C)(C)Br (stereo not drawn)	> 10 µM (inactive)	> 10 µM (inactive)	> 10 µM (inactive)	> 10 µM (inactive)	> 10 µM (inactive)	> 10 µM (inactive)	> 10 µM (inactive)	> 10 µM (inactive)	> 10 µM (inactive)	> 10 µM (inactive)	> 10 µM (inactive)	> 10 µM (inactive)	> 10 µM (inactive)	> 10 µM (inactive)	> 10 µM (inactive)	> 10 µM (inactive)	> 10 µM (inactive)	> 10 µM (inactive)	> 10 µM (inactive)	–
CC1=NNC(=O)C1C1CC(c2c[nH]c3ccccc23)=NN(C(N)=O)C1=O (stereo not drawn)	85.1 µM (inactive)	64 µM (inactive)	> 100 µM (inactive)	> 100 µM (inactive)	62.4 µM (inactive)	29.9 µM (inactive)	65.3 µM (inactive)	> 100 µM (inactive)	> 100 µM (inactive)	> 100 µM (inactive)	–	> 100 µM (inactive)	4.4 µM (inactive)	> 100 µM (inactive)	83.2 µM (inactive)	> 100 µM (inactive)	34.3 µM (inactive)	> 100 µM (inactive)	30.8 µM (inactive)	–
C1=NN2C(c3ccccc3)=NOC2C2C(c3ccccc3)=NOC12 (stereo not drawn)	> 100 µM (inactive)	> 100 µM (inactive)	> 100 µM (inactive)	> 100 µM (inactive)	> 100 µM (inactive)	> 100 µM (inactive)	> 100 µM (inactive)	96.2 µM (inactive)	> 100 µM (inactive)	> 100 µM (inactive)	–	> 100 µM (inactive)	> 100 µM (inactive)	–	> 100 µM (inactive)	–	> 100 µM (inactive)	> 100 µM (inactive)	–	–
O=C1c2ccccc2C(C2c3ccccc3C(=O)c3cc(Br)ccc32)c2ccc(Br)cc21 (stereo not drawn)	> 100 µM (inactive)	> 100 µM (inactive)	> 100 µM (inactive)	> 100 µM (inactive)	–	> 100 µM (inactive)	> 100 µM (inactive)	> 100 µM (inactive)	> 100 µM (inactive)	> 100 µM (inactive)	> 100 µM (inactive)	> 100 µM (inactive)	> 100 µM (inactive)	> 100 µM (inactive)	59.2 µM (inactive)	> 100 µM (inactive)	> 100 µM (inactive)	> 100 µM (inactive)	> 100 µM (inactive)	–
CCOC(=O)CCC(NC(=O)c1ccc(Oc2nc3ccccc3nc2-c2ccccc2)cc1)C(=O)OCC (stereo not drawn)	7.08 µM (inactive)	37.8 µM (inactive)	19.5 µM (inactive)	57.9 µM (inactive)	> 80.4 µM (inactive)	17.4 µM (inactive)	92.9 µM (inactive)	13.2 µM (inactive)	6.79 µM (inactive)	27.9 µM (inactive)	6.55 µM (inactive)	10.6 µM (inactive)	35.4 µM (inactive)	30.3 µM (inactive)	12.9 µM (inactive)	50.6 µM (inactive)	–	12.7 µM (inactive)	37.6 µM (inactive)	> 29.8 µM (inactive)
O=C(NC(O)(C(F)(F)F)C(F)(F)F)c1ccccc1	> 100 µM (inactive)	> 100 µM (inactive)	> 100 µM (inactive)	> 100 µM (inactive)	> 100 µM (inactive)	> 100 µM (inactive)	> 100 µM (inactive)	51.6 µM (inactive)	> 100 µM (inactive)	> 100 µM (inactive)	> 100 µM (inactive)	> 100 µM (inactive)	> 100 µM (inactive)	> 100 µM (inactive)	> 100 µM (inactive)	> 100 µM (inactive)	–	> 100 µM (inactive)	> 100 µM (inactive)	> 100 µM (inactive)
O=c1[nH]c(=O)n([C@@H]2O[C@H](CO)[C@@H](O)[C@@H]2F)cc1I [FIALURIDINE]	> 100 µM (inactive)	44.2 µM (inactive)	> 100 µM (inactive)	> 100 µM (inactive)	24 µM (inactive)	> 100 µM (inactive)	–	> 100 µM (inactive)	> 100 µM (inactive)	> 100 µM (inactive)	> 100 µM (inactive)	> 100 µM (inactive)	> 100 µM (inactive)	> 100 µM (inactive)	> 100 µM (inactive)	> 100 µM (inactive)	39.2 µM (inactive)	> 100 µM (inactive)	–	–
